Measurements reported in patent US11371097B2, “Articles for diagnosis of liver fibrosis” (THE GOVERNMENT OF THE UNITED STATES, as represented by THE …, priority 2015, dated 2022).
“And” between values parts separate entries of the source, which are not always exact repeats. Equal entries are not always repeated.

System: 67 genes on the fibrosis gene panel
Assay: Multiplexed fibrosis gene panel (QuantiGene 2.0 Plex / Bioplex) on liver RNA
[1] = liver RNA, individual animals, Carbon Tetrachloride 200, Bromobenzene 785, Dexamethasone 1 mg/kg
[2] = liver, relative to the other pathologies

## Brc1ccccc1 [bromobenzene]
liver
  Pcolce expression levels compared with fibrogenic compounds: anti-correlated with corresponding gene expression levels induced by 4,4′-methylenedianiline and allyl alcohol
[1]
  Differential Expression of A2m: −4.054 and −4.444 and −2.844 and −1.670
  Differential Expression of Angptl3: −0.864 and −1.104 and −0.499 and −0.518
  Differential Expression of Anxa2: 1.771 and 1.226 and 1.391 and 0.783
  Differential Expression of Apoc: −0.325 and −0.372 and −0.172 and −0.338
  Differential Expression of Arf6: 0.324 and 0.475 and 0.461 and 0.239
  Differential Expression of Arpc1b: −0.171 and −0.454 and −0.337 and −0.315
  Differential Expression of Arrb1: −1.220 and −1.482 and −0.627 and −2.254
  Differential Expression of C1qb: −0.465 and −0.014 and 0.309 and 0.018
  Differential Expression of CD9: −0.072 and −0.052 and 0.416 and 0.476
  Differential Expression of CD53: −0.045 and −0.339 and 0.303 and −0.440
  Differential Expression of CP: −1.055 and −0.969 and −0.530 and −1.250
  Differential Expression of Capg: −0.835 and −0.762 and 0.053 and −1.140
  Differential Expression of Ccl2: −0.790 and −1.244 and −1.328 and −1.622
  Differential Expression of Col1a1: −0.659 and −0.336 and 0.149 and −0.231
  Differential Expression of Col1a2: −0.901 and −0.686 and −0.378 and −0.731
  Differential Expression of Col4a1: −0.512 and −0.387 and −0.163 and −0.340
  Differential Expression of Col5a2: −0.708 and −0.778 and −0.542 and −0.877
  Differential Expression of Ctgf: −1.387 and −1.037 and −0.649 and −0.389
  Differential Expression of Cxcl1: −0.610 and −0.492 and −0.386 and −0.930
  Differential Expression of Cxcl12: −2.564 and −2.540 and −1.640 and −2.717
  Differential Expression of Cxcl16: −0.140 and −1.150 and −0.275 and −0.468
  Differential Expression of Cyba: −0.761 and −0.590 and 0.049 and −0.752
  Differential Expression of Cyp2c11: −7.760 and −8.696 and −7.411 and −6.882
  Differential Expression of Dsc2: 0.800 and 0.827 and 0.610 and 0.624
  Differential Expression of Fam102b: −0.808 and −0.338 and −0.148 and −0.780
  Differential Expression of Fam105a: −0.461 and −0.047 and 0.188 and −0.207
  Differential Expression of Fbn1: −1.303 and −1.090 and −0.632 and −1.013
  Differential Expression of Fn1: −1.880 and −1.522 and −1.313 and −1.481
  Differential Expression of Fstl1: −1.078 and −0.899 and −0.423 and −1.140
  Differential Expression of Fxyd5: −0.189 and −0.159 and 0.283 and −0.184
  Differential Expression of Gpnmb: 1.906 and 1.987 and 2.373 and 1.454
  Differential Expression of Igfals: −2.524 and −2.336 and −2.083 and −3.007
  Differential Expression of Igfbp1: 3.275 and 3.897 and 0.758 and 3.616
  Differential Expression of Igfbp2: 0.339 and 0.249 and −0.180 and 0.559
  Differential Expression of Igfbp3: −2.127 and −1.911 and −1.316 and −1.713
  Differential Expression of Itga1: −0.672 and −0.525 and 0.257 and −0.880
  Differential Expression of Itgb2: −0.722 and −0.914 and −0.301 and −1.032
  Differential Expression of Lame2: −0.725 and −1.692 and −0.854 and −1.188
  Differential Expression of Lbp: 0.157 and 0.036 and 0.207 and −0.066
  Differential Expression of Len2: −0.682 and −0.719 and −0.661 and −1.007
  Differential Expression of Lgals1: −0.856 and −0.388 and −0.455 and −0.084
  Differential Expression of Lgals3: 1.367 and 0.936 and 1.432 and 0.867
  Differential Expression of Lgals3bp: −0.415 and −0.105 and 0.126 and −0.427
  Differential Expression of Lox: −1.197 and −1.023 and −0.699 and −0.615
  Differential Expression of Lrp1: −1.297 and −1.003 and −0.323 and −1.011
  Differential Expression of Lum: −0.152 and −0.296 and −0.116 and −0.530
  Differential Expression of Mmp2: −0.086 and 0.177 and 0.235 and −0.151
  Differential Expression of Nid1: −0.460 and −0.132 and 0.014 and −0.579
  Differential Expression of Pcolce: −1.230 and −0.974 and −0.145 and −1.087
  Differential Expression of Pkm2: −0.142 and −0.085 and 0.069 and −0.110
  Differential Expression of Plat: 0.202 and 0.005 and 0.027 and 0.084
  Differential Expression of Plau: −1.049 and −0.402 and −0.470 and −1.553
  Differential Expression of Plod2: −0.446 and −0.410 and −0.613 and −0.623
  Differential Expression of RT1-DMa: −0.569 and −0.589 and 0.149 and −0.606
  Differential Expression of RT1-Da: −0.205 and −0.563 and 0.533 and −0.554
  Differential Expression of S100A6: −0.521 and 0.005 and −0.682 and 0.207
  Differential Expression of S100A11: −0.356 and −0.292 and 0.061 and −0.441
  Differential Expression of Serpine1: 0.153 and 0.825 and −0.550 and 0.552
  Differential Expression of Serping1: −1.107 and −0.925 and −0.627 and −0.678
  Differential Expression of Slc25a24: −0.143 and 0.149 and 0.189 and −0.325
  Differential Expression of Sod2: 0.200 and −0.035 and 0.134 and 0.187
  Differential Expression of TagIn2: −0.669 and −0.625 and 0.147 and −0.816
  Differential Expression of Tgfb1: −0.596 and −0.528 and −0.330 and −0.639
  Differential Expression of Timp1: −0.428 and −0.191 and −0.231 and −0.056
  Differential Expression of Vhl: 0.043 and −0.096 and −0.334 and −0.363
  Differential Expression of Vim: −0.148 and −0.045 and −0.109 and −0.327
  Differential Expression of Vtn: −1.353 and −1.261 and −0.746 and −0.854
liver, 67-gene panel, 1.5-fold threshold
  Panel genes downregulated (and upregulated in fibrogenic chemical-dose groups): 12 genes
[2]
  A2m expression: downregulated
  Lcn2 expression: downregulated
  Pcolce expression: downregulated
